Results from the NIST ThermoML archive (doi:10.1016/j.jct.2018.12.031).
Numbers after ± are expanded uncertainties.

Legend:
[1] = 100 kPa, Liquid, Frequency=3 MHz, Linear variable-path acoustic interferometer
[2] = xn = mol fraction of the nth substance listed; details: 100 kPa, Liquid; for speed of sound: Frequency=3 MHz, Linear variable-path acoustic interferometer; for mass density: Pycnometric method

N#Cc1ccccc1 [benzonitrile]
[1]
Details	speed of sound [m/s]
293.15 K	1436.9 ± 1.7
298.15 K	1418.2 ± 1.7
303.15 K	1400.7 ± 1.7
308.15 K	1384 ± 1.7
313.15 K	1368.2 ± 1.7
318.15 K	1352.9 ± 1.7

N#Cc1ccccc1 [benzonitrile] + C=C(C)C(=O)OCC
[2], x1 = 1
Details	mass density [kg/m3]	speed of sound [m/s]
293.15 K	1003.99 ± 1	1436.9 ± 1.7
298.15 K	1000.32 ± 1	1418.2 ± 1.7
303.15 K	996.65 ± 1	1400.7 ± 1.7
308.15 K	992.98 ± 1	1384 ± 1.7
313.15 K	989.31 ± 1	1368.2 ± 1.7
318.15 K	985.64 ± 1	1352.9 ± 1.7

N#Cc1ccccc1 [benzonitrile] + C=C(C)C(=O)OCCCC
[2], x1 = 1
Details	mass density [kg/m3]	speed of sound [m/s]
293.15 K	1003.99 ± 1	1436.9 ± 1.7
298.15 K	1000.32 ± 1	1418.2 ± 1.7
303.15 K	996.65 ± 1	1400.7 ± 1.7
308.15 K	992.98 ± 1	1384 ± 1.7
313.15 K	989.31 ± 1	1368.2 ± 1.7
318.15 K	985.64 ± 1	1352.9 ± 1.7

C=C(C)C(=O)OC [methyl methacrylate] + N#Cc1ccccc1
[2], x2 = 0
Details	mass density [kg/m3]	speed of sound [m/s]
293.15 K	943.38 ± 1	1200.5 ± 1.6
298.15 K	937.64 ± 1	1183.6 ± 1.6
303.15 K	931.9 ± 1	1168.5 ± 1.6
308.15 K	926.16 ± 1	1152.6 ± 1.6
313.15 K	920.42 ± 1	1135.4 ± 1.6
318.15 K	914.67 ± 1	1118.3 ± 1.6
